US20240067651A1 (Biohaven Therapeutics Ltd., priority 2019, published 2024)
Blank lines part the entries; values can stand above or below the compound they belong to.

Tests used:
[1] = Caco-2 Permeability Assay; type: in vitro ADME, human; conditions: human
Procedure, shortened: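 Caco-2 monolayers cultured 21 days (TEER >600 […]); test article at 10 μM in HBSS/HEPES pH 7.4 transport medium, dosed apical or basolateral, ±Pgp inhibitor. Incubated 90 min at 37 °C; both compartments quantified by LC-MS/MS. Papp (A→B, B→A), efflux ratio and % recovery calculated.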

[2] = Stability in Simulated Gastric Fluid (SGF); type: in vitro ADME; parameters: key: % parent compound remaining relative to 0-minute sample
Procedure, shortened: (§1)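 Stability was tested at 37° C in pepsin-supplemented gastric fluid, pH 1.2, and pancreatin-supplemented intestinal fluid, pH 6.8, using 2 μg/mL final compound over 0–60 minutes. Remaining parent was quantified by LC-MS/MS and expressed as a percentage of time zero.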

[3] = Stability in Simulated Intestinal Fluid (SIF); type: in vitro ADME; parameters: key: % parent compound remaining relative to 0-minute sample
Procedure, shortened: as §1

Plasma Stability = type: in vitro ADME, human
Procedure, shortened: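 Compounds incubated at 1 μM in fresh human plasma for 1 hour at 37° C, then protein-precipitated with acetonitrile/formic acid containing internal standard. Remaining parent measured by LC-MS/MS in triplicate, expressed as percent of control remaining.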

[4] = Caco-2, pH 7.4, donor 10 μM, 90 minutes, 37° C., direction not given
[5] = % remaining at 1 h, SGF with pepsin pH 1.2, 2 μg/mL, 37° C.
[6] = % remaining at 1 h, SIF with pancreatin pH 6.8, 2 μg/mL, 37° C.
[7] = % remaining at 1 h, human plasma, 1 μM, 37° C.
[8] = Caco-2, pH 7.4, Caco-2 monolayer
[9] = % remaining at 1 h in simulated gastric fluid
[10] = % remaining at 1 h in simulated intestinal fluid
[11] = % remaining at 1 h in human plasma
[12] = simulated gastric fluid, remaining at 1 h
[13] = % @ 1 h (remaining) in simulated gastric fluid
[14] = % @ 1 h (remaining) in simulated intestinal fluid
[15] = % @ 1 h (remaining) in human plasma
[16] = simulated intestinal fluid, remaining at 1 h

Structure (SMILES): COC(=O)[C@H](CCCCNC(=O)[C@@H](NC(=O)OC(C)(C)C)C(C)C)NC(=O)OCn1ccc2c1c(=O)[nH]c(=S)n2CCOC(C)C [Example 111, methyl (2S)-6-[(2S)-2-{[(tert-butoxy)carbonyl]amino}-3-methylbutanamido]-2-{[{{4-oxo-1-[2-(propan-2-yloxy)ethyl]-2-sulfanylidene-1H,2H,3H,4H,5H-pyrrolo[3,2-d]pyrimidin-5-yl}methoxy)carbonyl]amino}hexanoate]
Papp at 90 min, 10 µM [1, 4]: 0.575 ×10⁻⁶ cm/s
SGF [2, 5]: 87%
SIF [3, 6]: 74%
human Plasma stability (Plasma Stability; [7]): 85%

Papp at 90 min, 10 µM [1, 8]: 7.79 ×10⁻⁶ cm/s
SGF [2, 9]: 80% remaining
SIF [3, 10]: 6% remaining
human Plasma stability (Plasma Stability; [11]): 1% remaining
Structure (SMILES): CC(C)OCCn1c(=S)[nH]c(=O)c2c1ccn2COC(=O)C1CN(C(=O)OC(C)(C)C)C1 [Example 127]

Papp at 90 min, 10 µM [1, 4]: 5.76 ×10⁻⁶ cm/s
SGF [2, 5]: 100%
SIF [3, 6]: 79%
human Plasma stability (Plasma Stability; [7]): 20%
Structure (SMILES): CC(C)OCCn1c(=S)n(COC(=O)c2ccccc2)c(=O)c2c1ccn2COC(=O)c1ccccc1 [Example 117, {3-[(benzoyloxy)methyl]-4-oxo-1-[2-(propan-2-yloxy)ethyl]-2-sulfanylidene-1H,2H,3H,4H,5H-pyrrolo[3,2-d]pyrimidin-5-yl}methylbenzoate]

Papp at 90 min, 10 µM [1, 8]: 5.41 ×10⁻⁶ cm/s
SGF [2, 9]: 92% remaining
SIF [3, 10]: 62% remaining
human Plasma stability (Plasma Stability; [11]): 98% remaining
Structure (SMILES): CSCC[C@H](NC(=O)OC(C)(C)C)C(=O)NCCC(=O)OCn1ccc2c1c(=O)[nH]c(=S)n2CCOC(C)C [Example 29]

Structure (SMILES): CC(C)OCCn1c(=S)[nH]c(=O)c2c1ccn2COC(=O)CCCCNC(=O)[C@@H](N)CO.O=C(O)C(F)(F)F [Example 43]
Papp at 90 min, 10 µM [1, 8]: 0.147 ×10⁻⁶ cm/s
SGF [2, 9]: 92% remaining
SIF [3, 10]: 87% remaining
human Plasma stability (Plasma Stability; [11]): 16% remaining

Structure (SMILES): CC(C)OCCn1c(SCOC(=O)CCCOC(=O)[C@H](N)C(C)C)nc(=O)c2c1ccn2COC(=O)CCCOC(=O)[C@H](N)C(C)C.O=C(O)C(F)(F)F.O=C(O)C(F)(F)F [Example 358, bis(trifluoroacetic acid) 4-(((5-(((4-((D-valyl)oxy)butanoyl)oxy)methyl)-1-(2-isopropoxyethyl)-4-oxo-4,5-dihydro-1H-pyrrolo[3,2-d]pyrimidin-2-yl)thio)methoxy)-4-oxobutyl D-valinate]
Papp at 90 min, 10 µM [1, 8]: 1.78 ×10⁻⁶ cm/s
SGF [2, 12]: 80% remaining
SIF ([3]; simulated intestinal fluid, bare number, unit or time not given): 48
human Plasma stability (Plasma Stability; human plasma, remaining at 1 h): 12% remaining

Papp at 90 min, 10 µM [1, 8]: 31.3 ×10⁻⁶ cm/s
SGF [2, 13]: 80% @ 1 h
SIF [3, 14]: 80% @ 1 h
human Plasma stability (Plasma Stability; [15]): 99% @ 1 h
Structure (SMILES): CC(C)CN(C)C(=O)OCSc1nc(=O)c2c(ccn2COC(=O)N(C)CC(C)C)n1CCOC(C)C [Example 161]

Structure (SMILES): CC(C)OCCn1c(SCOC(=O)N(C)C(C)(C)C)nc(=O)c2c1ccn2COC(=O)N(C)C(C)(C)C.O=C(O)C(F)(F)F [Example 168]
Papp at 90 min, 10 µM [1, 8]: 28.1 ×10⁻⁶ cm/s
SGF [2, 13]: 100% @ 1 h
SIF [3, 14]: 94% @ 1 h
human Plasma stability (Plasma Stability; [15]): 88% @ 1 h

Structure (SMILES): CC(C)OCCn1c(=S)n(COC(=O)[C@@H](C)N)c(=O)c2c1ccn2COC(=O)[C@@H](C)N.O=C(O)C(F)(F)F.O=C(O)C(F)(F)F [Example 293, bis(trifluoroacetic acid) [3-({[(2R)-2-aminopropanoyl]oxy}methyl)-4-oxo-1-[2-(propan-2-yloxy)ethyl]-2-sulfanylidene-1H,2H,3H,4H,5H-pyrrolo[3,2-d]pyrimidin-5-yl]methyl (2R)-2-aminopropanoate]
Papp at 90 min, 10 µM ([1]; Caco-2, pH 7.4): < 1.06 ×10⁻⁶ cm/s
SGF ([2]; % remaining @ 1 h): 100% @ 1 h
SIF ([3]; % remaining @ 1 h): 29% @ 1 h
human Plasma stability (Plasma Stability; % remaining @ 1 h): 25% @ 1 h

Structure (SMILES): CC(C)OCCn1c(=S)[nH]c(=O)c2c1ccn2COCC[Si](C)(C)C [Example 72, 1-[2-(propan-2-yloxy)ethyl]-2-sulfanylidene-5-{[2-(trimethylsilyl)ethoxy]methyl}-1H,2H,3H,4H,5H-pyrrolo[3,2-d]pyrimidin-4-one]
Papp at 90 min, 10 µM [1, 4]: 26.4 ×10⁻⁶ cm/s
SGF [2, 5]: 97%
SIF [3, 6]: 98%
human Plasma stability (Plasma Stability; [7]): 78%

Papp at 90 min, 10 µM [1, 4]: 0.111 ×10⁻⁶ cm/s
SGF [2, 5]: 0%
SIF [3, 6]: 0%
human Plasma stability (Plasma Stability; [7]): 5%
Structure (SMILES): CC(C)OCCn1c(=S)[nH]c(=O)c2c1ccn2C(C)OC(=O)OC1CCN(C(=O)OC(C)(C)C)CC1 (stereo not shown) [Example 99, tert-Butyl 4-{[(1-{4-oxo-1-[2-(propan-2-yloxy)ethyl]-2-sulfanylidene-1H,2H,3H,4H,5H-pyrrolo[3,2-d]pyrimidin-5-yl}ethoxy)carbonyl]oxy}piperidine-1-carboxylate]

Structure (SMILES): CC(C)OCCn1c(=S)[nH]c(=O)c2c1ccn2COC(=O)CCCCNC(=O)[C@@H](NC(=O)OC(C)(C)C)[C@@H](C)O.O=C(O)C(F)(F)F [Example 35]
Papp at 90 min, 10 µM [1, 8]: 1.91 ×10⁻⁶ cm/s
SGF [2, 9]: 91% remaining
SIF [3, 10]: 99% remaining
human Plasma stability (Plasma Stability; [11]): 30% remaining

Papp at 90 min, 10 µM ([1]; Caco-2, pH 7.4, Caco-2 monolayer, the 17th table): 0.847 ×10⁻⁶ cm/s
SGF ([2]; % remaining at 1 h in simulated gastric fluid, the 17th table): 98% remaining
SIF ([3]; % remaining at 1 h in simulated intestinal fluid, the 17th table): 23% remaining
human Plasma stability (Plasma Stability; % remaining at 1 h in human plasma, the 17th table): 21% remaining
Structure (SMILES): CCCCCCCOC(=O)OCn1ccc2c1c(=O)nc(S)n2CCOC(C)C [Example 219]

Papp at 90 min, 10 µM ([1]; Caco-2, pH 7.4, Caco-2 monolayer, the 15th table): 19.5 ×10⁻⁶ cm/s
SGF ([2]; % remaining at 1 h in simulated gastric fluid, the 15th table): 99% remaining
SIF ([3]; % remaining at 1 h in simulated intestinal fluid, the 15th table): 98% remaining
human Plasma stability (Plasma Stability; % remaining at 1 h in human plasma, the 15th table): 99% remaining
Structure (SMILES): CC(C)NC(=O)OCSc1nc(=O)c2[nH]ccc2n1CCOC(C)C [Example 196]

Papp at 90 min, 10 µM [1, 8]: 7.47 ×10⁻⁶ cm/s
SGF ([2]; simulated gastric fluid, at 1 h): 98% remaining
SIF ([3]; simulated intestinal fluid, at 1 h): 99% remaining
human Plasma stability (Plasma Stability; human plasma, at 1 h): 52% remaining
Structure (SMILES): Cc1ccccc1N(C)C(=O)OCn1c(=O)c2c(ccn2COC(=O)N(C)c2ccccc2C)n(CCOC(C)C)c1=S [Example 244]

Structure (SMILES): CC(C)C[C@@H](N)C(=O)OCCC(=O)OCn1ccc2c1c(=O)[nH]c(=S)n2CCOC(C)C.O=C(O)C(F)(F)F [Example 368, trifluoroacetic acid 3-oxo-3-({4-oxo-1-[2-(propan-2-yloxy)ethyl]-2-sulfanylidene-1H,2H,3H,4H,5H-pyrrolo[3,2-d]pyrimidin-5-yl}methoxy)propyl (2R)-2-amino-4-methylpentanoate]
Papp at 90 min, 10 µM [1, 8]: 0.12 ×10⁻⁶ cm/s
SGF [2, 12]: 100% remaining
SIF [3, 16]: 1% remaining
human Plasma stability (Plasma Stability; human plasma, remaining at 1 h): 1% remaining

Structure (SMILES): CC(C)C[C@H](N)C(=O)NCCC(=O)OCn1ccc2c1c(=O)[nH]c(=S)n2CCOC(C)C.O=C(O)C(F)(F)F [Example 30]
Papp at 90 min, 10 µM [1, 8]: < 0.269 ×10⁻⁶ cm/s
SGF [2, 9]: 93% remaining
SIF [3, 10]: 67% remaining
human Plasma stability (Plasma Stability; [11]): 40% remaining

Papp at 90 min, 10 µM [1, 8]: 24.9 ×10⁻⁶ cm/s
SGF [2, 9]: 85% remaining
SIF [3, 10]: 17% remaining
human Plasma stability (Plasma Stability; [11]): 3% remaining
Structure (SMILES): CC(C)OCCn1c(=S)[nH]c(=O)c2c1ccn2COC(=O)OC1CN(C(=O)OC(C)(C)C)C1 [Example 125]

Structure (SMILES): CC(C)OCCn1c(=S)n(COC(=O)CCCOC(=O)[C@@H](Cc2ccccc2)NC(=O)OC(C)(C)C)c(=O)c2c1ccn2COC(=O)CCCOC(=O)[C@@H](Cc1ccccc1)NC(=O)OC(C)(C)C [Example 365, (3-{[(4-{[(2R)-2-{[(tert-butoxy)carbonyl]amino}-3-phenylpropanoyl]oxy}butanoyl)oxy]methyl}-4-oxo-1-[2-(propan-2-yloxy)ethyl]-2-sulfanylidene-1H,2H,3H,4H,5H-pyrrolo[3,2-d]pyrimidin-5-yl)methyl 4-{[(2R)-2-{[(tert-butoxy)carbonyl]amino}-3-phenylpropanoyl]oxy}butanoate]
Papp at 90 min, 10 µM [1, 8]: < 0.263 ×10⁻⁶ cm/s
SGF [2, 12]: 85% remaining
SIF [3, 16]: 5% remaining
human Plasma stability (Plasma Stability; human plasma, remaining at 1 h): 11% remaining
